Assay results as given in ChEMBL document CHEMBL1134911, “Nodulisporic acid B, B1, and B2: a series of 1'-deoxy-nodulisporic acids from Nodulisporium sp” (Bioorg Med Chem Lett, 2002).

Assay: Lethal dose was evaluated against flea
Details: pulicinae; call rule not given here
In the case of `C=C(C)[C@H]1Cc2c3c(cc4c5c(n1c24)[C@@]1(C)[C@@H](CC[C@H]2[C@](C)(/C=C/C=C(\C)C(=O)OC)[C@@H](O)CC[C@@]21C)C5)C1=CC(C)(C)OC(C)(C)[C@H]1[C@@H]3O`, the LD90 was 100 p.p.m.
`C=C(C)[C@H]1C(=O)c2c3c(cc4c5c(n1c24)[C@@]1(C)[C@@H](CC[C@H]2[C@](C)(/C=C/C=C(\C)C(=O)OC)[C@@H](O)CC[C@@]21C)C5)C1=CC(C)(C)OC(C)(C)[C@H]1[C@@H]3O` showed an LD90 of 10 p.p.m.
Compound `C=C(C)[C@H]1Cc2c3c(cc4c5c(n1c24)[C@@]1(C)[C@@H](CC[C@H]2[C@](C)(/C=C/C=C(\C)C(=O)[O-])[C@@H](O)CC[C@@]21C)C5)C1=CC(C)(C)OC(C)(C)[C@H]1[C@@H]3O.[Na+]` has an LD90 of 100 p.p.m.
Work on `C=C(C)[C@H]1C(=O)c2c3c(cc4c5c(n1c24)[C@@]1(C)C(CC[C@H]2[C@](C)(/C=C/C=C(\C)C(=O)O)[C@@H](O)CC[C@@]21C)C5)C1=CC(C)(C)OC(C)(C)C1[C@@H]3O` (stereo partly specified) [NOD ACID A] yielded an LD90 of 1 p.p.m.
Work on `C=C(C)[C@H]1C(=O)c2c3c(cc4c5c(n1c24)[C@@]1(C)[C@@H](CC[C@@H]2[C@]1(C)CC[C@]1(O)O[C@H](/C=C(\C)C(=O)O)C[C@@]21C)C5)C1=CC(C)(C)OC(C)(C)[C@H]1[C@@H]3O` [NODULISPORIC ACID A1] yielded an LD90 of 5 p.p.m.
Work on `C=C(C)[C@H]1C(=O)c2c3c(cc4c5c(n1c24)[C@@]1(C)[C@@H](CC[C@@H]2[C@]1(C)CC[C@]1(O)O[C@H](C(O)C(C)C(=O)O)C[C@@]21C)C5)C1=CC(C)(C)OC(C)(C)[C@H]1[C@@H]3O` (stereo partly specified) [NODULISPORIC ACID A2] yielded an LD90 of 10 p.p.m.
For IVERMECTIN, the LD90 was 10 p.p.m.

Assay: Lethal dose was evaluated against flea; NA means not active at 100 ppm
Format: ADME
Details: pulicinae
With `C=C(C)[C@H]1Cc2c3c(cc4c2N1C(=O)[C@@]1(C)[C@@H](CC[C@H]2[C@](C)(/C=C/C=C(\C)C(=O)OC)[C@@H](O)CC[C@@]21C)CC4=O)C1=CC(C)(C)OC(C)(C)[C@H]1[C@@H]3O` the LD90 was “Not Active”.
With `C=C(C)[C@H]1Cc2c3c(cc4c5c(n1c24)[C@@]1(C)[C@@H](CC[C@@H]2[C@]1(C)CC[C@]1(O)O[C@H](C(O)C(C)C(=O)[O-])C[C@@]21C)C5)C1=CC(C)(C)OC(C)(C)[C@H]1[C@@H]3O.[Na+]` (stereo partly specified) the LD90 was “Not Active”.
For `C=C(C)[C@H]1Cc2c3c(cc4c5c(n1c24)[C@@]1(C)[C@@H](CC[C@@H]2[C@]1(C)CC[C@]1(O)O[C@H](/C=C(\C)C(=O)[O-])C[C@@]21C)C5)C1=CC(C)(C)OC(C)(C)[C@H]1[C@@H]3O.[Na+]`, the LD90 was “Not Active”.

Assay: Lethal dose was evaluated against flea; partial activity
Format: ADME
Details: pulicinae
`C=C(C)[C@H]1Cc2c3c(cc4c5c(n1c24)[C@@]1(C)[C@@H](CC[C@H]2[C@](C)(/C=C/C=C(\C)C(=O)OC)[C@@H](O)CC[C@@]21C)C5)C1=CC(C)(C)OC(C)(C)[C@H]1[C@@H]3O` gave an LD90 of 10 p.p.m.
